In patent US9597271B2, “Cosmetic compositions and methods” (The Procter & Gamble Company, priority 2013, dated 2017):
Values joined by “and” are separate entries in the source; they are usually repeats but may differ in a detail not shown here. Equal entries are not always repeated.

Tests used:
[1] = molecular target: T1, 20S proteasome (Mus musculus, UniProt O55234); assay: Proteasomal protease in vitro assay (ProteasomeGlo, Suc-LLVY luminogenic substrate) in B16 melanoma cells; format: cell-based; details: for Fold Change Over Control (luminescence): B16 melanoma cells; for Ricinoleate concentration at which synergy with niacinamide is statistically significant: combined with 250 μM niacinamide
T1 construct: endogenous in cells; host or cells: B16 melanoma cells (lysate after 20-24 h treatment)
T1 sequence (O55234 60-264): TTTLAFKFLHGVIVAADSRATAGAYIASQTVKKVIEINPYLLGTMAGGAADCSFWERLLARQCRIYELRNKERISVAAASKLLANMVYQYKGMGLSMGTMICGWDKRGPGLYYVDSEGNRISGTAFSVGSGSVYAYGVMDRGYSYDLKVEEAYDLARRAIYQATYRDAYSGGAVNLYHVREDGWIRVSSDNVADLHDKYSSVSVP
Method: The following proteasomal protease in vitro assay was employed for evaluating activity associated with this pathway. Cultures of B16 melanoma cells (about 25% confluence) were treated with a culture media (Dulbecco's Modified Eagle Medium, 11995-065 Life technologies supplemented with 5% Fetal Bovine Serum, 30-2020, American Tissue Culture Collection and 1% Penicillin/streptomycin, 15140, Life Technologies) and one of 1) a vehicle (DMSO) containing niacinamide, 2) a vehicle (DMSO) containing one of glycerol ricinoleate, sodium ricinoleate and butyl acetyl ricinoleate at varying dilutions, 3) a vehicle (DMSO) containing a combination of niacinamide and one of the ricinoleate compounds listed above, and 4) a vehicle (DMSO) containing 2-hexyl-decanol as a positive control. The final dilution of DMSO in the culture medium was 1% in all instances. The treated melanoma cells were incubated in multi-well plates at 37° C. in a CO2 incubator for a period of 20 to 24 hours. The treated cells were thereafter lyzed by removing the culture medium and replacing it with 100 uL/well of CellGlo lysis reagent (available from Promega, Wis., USA) followed by incubation at room temperature for about 10 minutes. A luminogenic substrate containing a Suc-LLVY peptide sequence recognized by the 20S proteasome was added to the B16 cultures, and the mixtures were incubated in multi-well plates at a temperature of 25° C. for approximately 10 minutes. Luminescence counts (a unit less measurement from the plate reader) from developing the cleaved substrate with luciferase detection system (ProteasomeGlo® from Promega, Madison, Wis.) was measured in an Envision Plate Reader (Perkin Elmer, Waltham, Mass.). Other plate luminometer/luminescence readers may also be used as known in the art.
Luminescence counts for treatment groups were divided by the luminescence counts from the vehicle control (1% DMSO, as diluted in the culture medium). […] 2-hexyldecanol, a known skin tone agent, was also previously found to activate this proteasomal chymotryptic protease activity. See, e.g., Hakozaki et al., A regulator of ubiquitin-proteasome activity, 2-hexyldecanol, suppresses melanin synthesis and the appearance of facial hyperpigmented spots, British Journal of Dermatology 2013, 169 (Supp 2), pp 39-44.

[2] = molecular target: T1, 20S proteasome; details: previously found, Hakozaki et al. 2013; cited from earlier work
[3] = experiment #1, N=3, 20 to 24 hours, DMSO vehicle
[4] = experiment #2, N=3, 20 to 24 hours, DMSO vehicle
[5] = vitamin B3 compound alone, 250 uM, B16 cells, average of 3 replicates
[6] = ricinoleate compound alone, 0.000064 w/v %, B16 cells
[7] = ricinoleate compound alone, 0.00032 w/v %, B16 cells
[8] = ricinoleate compound alone, 0.0016 w/v %, B16 cells
[9] = ricinoleate compound alone, 0.008 w/v %, B16 cells

| Molecule | Fold Change Over Control (luminescence) ([1]; Avg. of experiments #1 and #2) | Fold Change Over Control (luminescence) [1, 3] | Fold Change Over Control (luminescence) [1, 4] | Net Luminescence (treatment luminescence counts − vehicle control luminescence counts) [1, 5] | Net Luminescence (treatment luminescence counts − vehicle control luminescence counts) [1, 6] | Net Luminescence (treatment luminescence counts − vehicle control luminescence counts) [1, 7] | Net Luminescence (treatment luminescence counts − vehicle control luminescence counts) [1, 8] | Net Luminescence (treatment luminescence counts − vehicle control luminescence counts) [1, 9] | further results |
| --- | --- | --- | --- | --- | --- | --- | --- | --- | --- |
| CCCCCCCCC(CO)CCCCCC (stereo not shown) [2-hexyldecanol, reference compound] | 1.16 | 1.15 | 1.17 |  |  |  |  |  | Activation of proteasomal chymotryptic protease activity (in words) [2]: activate |
| OCc1cccnc1 [3-pyridinemethanol] |  |  |  | 105 |  |  |  |  |  |
| CCCCCC[C@H](C/C=C\CCCCCCCC(=O)OCCCC)OC(C)=O [Butyl acetyl ricinoleate, butyl acetyl ricinoleate] | 1.29 | 1.32 | 1.26 |  | 1224 | 2164 | 2357 | 2439 | Ricinoleate concentration at which synergy with niacinamide is statistically significant ([1]; B16 cells): ≥ 0.00032% |
| CCCCCC[C@@H](O)C/C=C\CCCCCCCC(=O)OCC(O)CO (stereo partly shown) [Glyceryl ricinoleate, glyceryl ricinoleate] | 1.17 | 1.15 | 1.18 |  | 123 | 534 | 839 | 867 | Net Luminescence (treatment luminescence counts − vehicle control luminescence counts) ([1]; ricinoleate compound alone, 0.00032 w/v %, B16 cells, listed as GR): 287 and 518; Net Luminescence (treatment luminescence counts − vehicle control luminescence counts) ([1]; ricinoleate compound alone, 0.0016 w/v %, B16 cells, listed as GR): 745 and 1258; Net Luminescence (treatment luminescence counts − vehicle control luminescence counts) ([1]; ricinoleate compound alone, 0.008 w/v %, B16 cells, listed as GR): 789 and 1125 |
| COC(=O)c1cccnc1 [Methyl niconate, methyl niconate] |  |  |  | 162 |  |  |  |  |  |
| CCCCCC[C@@H](O)C/C=C\CCCCCCCC(=O)OC [Methyl ricinoleate, methyl ricinoleate] |  |  |  |  |  |  |  | 4222 | Ricinoleate concentration at which synergy with niacinamide is statistically significant ([1]; B16 cells): 0.008% |
| NC(=O)c1cccnc1 [Niacinamide, niacinamide] |  |  |  | 158 (4×) and 257 (8×) and 1503 |  |  |  |  | Activation of proteasomal protease activity, single agent (in words) ([1]; B16 cells): lower level of activation |
| O=C(O)c1cccnc1 [Nicotinic acid, nicotinic acid] |  |  |  | 303 |  |  |  |  |  |
| CCCCCC[C@@H](O)C/C=C\CCCCCCCC(=O)[O-].[Na+] [Sodium ricinoleate, sodium ricinoleate] | 1.24 | 1.26 | 1.21 |  | 123 | 878 | 1805 | 2164 |  |
| nicotinamide ribose |  |  |  | 392 |  |  |  |  |  |
